What was measured:
human TRPML1 = human TRPML1 (Homo sapiens, UniProt Q9GZU1); test: Fluorescent TRPML1 assay (Fluo4-AM calcium fluorescence, HEK-293 Trex cells); assay type: cell-based
Experimental: (§1) HEK-293 Trex cells were stably transfected with a construct consisting of the human coding sequence for TRPML1 cloned into the tet-inducible plasmid pCDNA5 T/O. Mutations were introduced into the TRPML1 sequence to facilitate expression on the cell surface (Silvia Vergarajauregui, Rosa Puertollano Traffic. 2006 March; 7 (3): 337-353). Briefly, the cells are cultured in 150 mm round tissue culture dishes containing 20 mL of media. The day before the assay the cells are rinsed with DPBS —Ca—Mg and then treated briefly with Trypsin-EDTA. The Trypsin-EDTA is diluted with growth media, and cells are counted. 38×10^6 cells are re-plated into 150 mm round tissue culture dishes in media containing 0.5 ug/mL doxycycline to induce expression of hTRPML1.
(§2) The day of the experiment cells are lifted from the plates as above and collected by centrifugation. The cells are then suspended in dye loading buffer consisting of Ringer's solution supplemented with 0.1% Pluronic Acid and 1 micromolar Fluo4-AM dye. Cells are loaded for ˜60 minutes in the dark with occasional mixing. The cells are collected by centrifugation, the loading media aspirated, and the cells resuspended in 25 mL Ringer's solution and incubated ˜60 minutes in the dark. The cells are again collected by centrifugation, rinsed in Ringer's Solution and resuspended to 0.2×10^6 cells/mL in modified Ringer's solution containing 10 mM calcium.
(§3) Compounds are dissolved to a concentration of 10 millimolar with DMSO. Compound plates are created by dispensing compounds into 384 well black wall clear bottom plates (Greiner 781091). Positive and negative controls are included on each plate. Typically, different amounts of each compound are tested ranging from 100 nanoMoles (20 micromolar final concentration) decreasing in half-log steps to 31 picoMoles (6 nanomolar final concentration). Each concentration is typically tested in triplicate.
(§4) 50 microliters of dye-loaded cells are dispensed into each well of the compound assay plate created above. The fluorescence in each well is then determined with an excitation wavelength of 480 nm and an emission wavelength of 540 nm using either a Molecular Devices SpectraMax multimode plate reader or a Hamamatsu FDSS/uCell plate imager.
(§5) The resulting fluorescence for each well is exported as an ascii file and loaded into our LIMS for analysis. The percent activity of each compound at each concentration is determined by comparison to the positive and negative control wells included in each plate.
(§6) EC50 values were calculated using a non-linear regression of Prism. In the table, “A” indicates an EC50 of less than 100 nM, “B” indicates an EC50 range from 100 nM to 500 nM; “C” indicates an EC50 range from 500 nM to 2 μM; and “D” indicates an EC50 greater than 2 μM.

TRPML3 = molecular target: T1, TRPML3 (Homo sapiens, UniProt Q8TDD5); test: Fluorescent TRPML3 assay (as for TRPML1); assay type: cell-based
T1 construct: expressed in transfected cells
T1 sequence (Q8TDD5 1-553): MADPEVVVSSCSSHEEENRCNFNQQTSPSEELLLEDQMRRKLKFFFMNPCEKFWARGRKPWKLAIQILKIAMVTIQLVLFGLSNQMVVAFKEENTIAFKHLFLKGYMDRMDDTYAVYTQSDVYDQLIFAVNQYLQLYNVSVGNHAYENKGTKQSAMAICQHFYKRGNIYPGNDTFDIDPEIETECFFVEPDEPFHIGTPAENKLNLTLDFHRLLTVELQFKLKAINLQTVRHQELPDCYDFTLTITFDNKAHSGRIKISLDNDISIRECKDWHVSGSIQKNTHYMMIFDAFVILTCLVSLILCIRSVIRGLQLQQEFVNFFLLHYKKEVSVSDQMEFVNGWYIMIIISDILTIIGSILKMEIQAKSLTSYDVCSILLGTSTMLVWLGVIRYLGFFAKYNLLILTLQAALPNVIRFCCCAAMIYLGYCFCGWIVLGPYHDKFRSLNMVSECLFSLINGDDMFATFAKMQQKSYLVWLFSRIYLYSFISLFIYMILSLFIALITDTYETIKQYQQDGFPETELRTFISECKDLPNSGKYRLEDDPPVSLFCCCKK
Experimental: as §1, §2, §3, §4, §5
Assays for TRPML2 and TRPML3 were performed as above for TRPML1, by substituting the appropriate TRPML2 or TRPML3 subtype for the TRPML1.
as §6

Chain of human TRPML1 (Q9GZU1 whole entry L15A/L16A/L577A/L578A, form open): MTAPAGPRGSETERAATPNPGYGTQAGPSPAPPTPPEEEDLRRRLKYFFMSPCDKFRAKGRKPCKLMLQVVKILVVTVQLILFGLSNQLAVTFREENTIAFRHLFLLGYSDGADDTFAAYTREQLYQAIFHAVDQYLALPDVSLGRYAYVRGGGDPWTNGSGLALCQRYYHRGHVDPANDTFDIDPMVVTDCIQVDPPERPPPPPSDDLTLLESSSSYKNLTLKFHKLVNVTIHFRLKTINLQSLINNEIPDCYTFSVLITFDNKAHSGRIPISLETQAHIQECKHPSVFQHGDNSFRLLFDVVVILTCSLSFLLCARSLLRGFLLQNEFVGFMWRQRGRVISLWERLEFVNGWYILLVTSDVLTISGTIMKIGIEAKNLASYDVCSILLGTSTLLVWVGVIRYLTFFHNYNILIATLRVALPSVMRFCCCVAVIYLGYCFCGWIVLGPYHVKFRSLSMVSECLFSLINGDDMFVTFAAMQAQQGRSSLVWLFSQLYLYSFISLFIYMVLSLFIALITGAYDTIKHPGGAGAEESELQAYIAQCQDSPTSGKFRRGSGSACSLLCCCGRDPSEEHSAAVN

Row | SMILES | EC50 (human TRPML1; Table 3, compounds 201-283) [nM] | EC50 (TRPML3; Table 3, compounds 201-283) [nM] | EC50 (human TRPML1; Table 3, compounds 101-177) [nM] | EC50 (TRPML3; Table 3, compounds 101-177) [nM]
1 | COC1(C(=O)N2CCN(c3ncnc4c3c(-c3ccccc3F)cn4-c3cc(C#N)ccn3)[C@@H](C)C2)CC1 [Compound 243, (S)-2-(5-(2-fluorophenyl)-4-(4-(1-methoxycyclopropane-1-carbonyl)-2-methylpiperazin-1-yl)-7H-pyrrolo[2,3-d]pyrimidin-7-yl)isonicotinonitrile] | < 100 | 100 to 500 | – | –
2 | C[C@H]1CN(C(=O)C2(C)CC2)CCN1c1ncnc2c1c(-c1ccccc1F)cn2-c1cc(C#N)ccn1 [Compound 112, (S)-2-(5-(2-fluorophenyl)-4-(2-methyl-4-(1-methylcyclopropane-1-carbonyl)piperazin-1-yl)-7H-pyrrolo[2,3-d]pyrimidin-7-yl)isonicotinonitrile] | – | – | < 100 | < 100
3 | CC(C)C(=O)N1CCN(c2ncnc3c2c(-c2ccccc2F)cn3-c2cc(C#N)ccn2)CC12CC2 [Compound 145, 2-(5-(2-fluorophenyl)-4-(4-isobutyryl-4,7-diazaspiro[2.5]octan-7-yl)-7H-pyrrolo[2,3-d]pyrimidin-7-yl)isonicotinonitrile] | – | – | 100 to 500 | < 100
4 | Cc1cn(-c2cc(C(F)(F)F)ccn2)c2ncnc(N3C[C@@H](C)N(C(=O)C(C)(C)C)C[C@@H]3C)c12 [Compound 245, 1-((2R,5S)-2,5-dimethyl-4-(5-methyl-7-(4-(trifluoromethyl)pyridin-2-yl)-7H-pyrrolo[2,3-d]pyrimidin-4-yl)piperazin-1-yl)-2,2-dimethylpropan-1-one] | < 100 | 100 to 500 | – | –
5 | CC(C)C(=O)N1CCN(c2ncnc3c2c(N2CCC2)cn3-c2cc(C#N)ccn2)C[C@H]1C [Compound 273, (R)-2-(5-(azetidin-1-yl)-4-(4-isobutyryl-3-methylpiperazin-1-yl)-7H-pyrrolo[2,3-d]pyrimidin-7-yl)isonicotinonitrile] | < 100 | < 100 | – | –
6 | C[C@@H]1CN(c2ncnc3c2c(C(F)(F)F)cn3-c2cncc(C#N)c2)[C@@H](C)CN1C(=O)C(C)(C)C [Compound 224, 5-(4-((2S,5R)-2,5-dimethyl-4-pivaloylpiperazin-1-yl)-5-(trifluoromethyl)-7H-pyrrolo[2,3-d]pyrimidin-7-yl)nicotinonitrile] | < 100 | 500 to 2000 | – | –
7 | CC(C)C(=O)N1CCN(c2ncnc3c2c(-c2ccccc2F)cn3-c2cc(C#N)ccn2)CC1 [Compound 106, 2-(5-(2-fluorophenyl)-4-(4-isobutyrylpiperazin-1-yl)-7H-pyrrolo[2,3-d]pyrimidin-7-yl)isonicotinonitrile] | – | – | 100 to 500 | < 100
8 | CC(C)C(=O)N1CCN(c2ncnc3c(-c4cc(C#N)ccn4)cn(-c4ccccc4F)c23)[C@@H](C)C1 [Compound 212, (S)-2-(5-(2-fluorophenyl)-4-(4-isobutyryl-2-methylpiperazin-1-yl)-5H-pyrrolo[3,2-d]pyrimidin-7-yl)isonicotinonitrile] | 100 to 500 | 100 to 500 | – | –
9 | CCCN(CC)c1cn(-c2cc(C#N)ccn2)c2ncnc(N3CCN(C(=O)C(C)(C)C)C[C@@H]3C)c12 [Compound 164] | – | – | < 100 | < 100
10 | C[C@@H]1CN(c2ncnc3c2c(C2CC2)cn3-c2cc(F)cc(F)c2)[C@@H](C)CN1C(=O)C(C)(C)C [Compound 205, 1-((2R,5S)-4-(5-cyclopropyl-7-(3,5-difluorophenyl)-7H-pyrrolo[2,3-d]pyrimidin-4-yl)-2,5-dimethylpiperazin-1-yl)-2,2-dimethylpropan-1-one] | < 100 | 100 to 500 | – | –
11 | CC(C)C(=O)N1C[C@H](C)N(c2ncnc3c2c(-c2ccccc2F)cn3-c2cc(F)ccn2)C[C@H]1C [Compound 167, 1-((2R,5S)-4-(5-(2-fluorophenyl)-7-(4-fluoropyridin-2-yl)-7H-pyrrolo[2,3-d]pyrimidin-4-yl)-2,5-dimethylpiperazin-1-yl)-2-methylpropan-1-one] | – | – | < 100 | < 100
12 | CC(C)C(=O)N1CCN(c2ncnc3c2c(-c2ccccc2F)cn3-c2cc(C#N)cnn2)[C@@H](C)C1 [Compound 171, (S)-6-(5-(2-fluorophenyl)-4-(4-isobutyryl-2-methylpiperazin-1-yl)-7H-pyrrolo[2,3-d]pyrimidin-7-yl)pyridazine-4-carbonitrile] | – | – | 100 to 500 | 100 to 500
13 | CC(C)C(=O)N1C[C@H](C)N(c2ncnc3c2c(C2CCC2)cn3-c2cc(C#N)ccn2)C[C@H]1C [Compound 238, 2-(5-cyclobutyl-4-((2S,5R)-4-isobutyryl-2,5-dimethylpiperazin-1-yl)-7H-pyrrolo[2,3-d]pyrimidin-7-yl)isonicotinonitrile] | 100 to 500 | – | – | –
14 | C[C@H]1CN(C(=O)C2CC2)CCN1c1ncnc2c1c(-c1ccccc1)cn2-c1cc(C#N)ccn1 [Compound 123, (S)-2-(4-(4-(cyclopropanecarbonyl)-2-methylpiperazin-1-yl)-5-phenyl-7H-pyrrolo[2,3-d]pyrimidin-7-yl)isonicotinonitrile] | – | – | 100 to 500 | 100 to 500
15 | C[C@@H]1CN(c2nccc3c2c(N2CCC2)cn3-c2cccc(F)c2)[C@@H](C)CN1C(=O)C(C)(C)C [Compound 226, 1-((2R,5S)-4-(3-(azetidin-1-yl)-1-(3-fluorophenyl)-1H-pyrrolo[3,2-c]pyridin-4-yl)-2,5-dimethylpiperazin-1-yl)-2,2-dimethylpropan-1-one] | < 100 | < 100 | – | –
16 | COC(C)(C)C(=O)N1CCN(c2ncnc3c2c(C2CC2)cn3-c2cc(C#N)ccn2)[C@@H](C)C1 [Compound 241, (S)-2-(5-cyclopropyl-4-(4-(2-methoxy-2-methylpropanoyl)-2-methylpiperazin-1-yl)-7H-pyrrolo[2,3-d]pyrimidin-7-yl)isonicotinonitrile] | < 100 | < 100 | – | –
17 | C[C@@H]1CN(c2ncnc3c2c(C2CC2)cn3-c2cc(C#N)ccn2)CCN1C(=O)C1(F)CC1 [Compound 129, (R)-2-(5-cyclopropyl-4-(4-(1-fluorocyclopropane-1-carbonyl)-3-methylpiperazin-1-yl)-7H-pyrrolo[2,3-d]pyrimidin-7-yl)isonicotinonitrile] | – | – | < 100 | 100 to 500
18 | C[C@@H]1CN(c2ncnc3c2c(C(F)(F)F)cn3-c2cc(F)cc(F)c2)[C@@H](C)CN1C(=O)C(C)(C)C [Compound 225, 1-((2R,5S)-4-(7-(3,5-difluorophenyl)-5-(trifluoromethyl)-7H-pyrrolo[2,3-d]pyrimidin-4-yl)-2,5-dimethylpiperazin-1-yl)-2,2-dimethylpropan-1-one] | < 100 | 100 to 500 | – | –
19 | CC(C)C(=O)N1C[C@H](C)N(c2ncnc3c2c(-c2ccccc2F)cn3-c2cc(C#N)ccn2)C[C@H]1C (single isomer, unassigned) [Compound 233] | < 100 | – | – | –
20 | CC(C)C(=O)N1C[C@H](C)N(c2ncnc3c2c(-c2ccccc2F)cn3-c2cc(C#N)ccn2)C[C@H]1C (single isomer, unassigned) [Compound 234] | < 100 | – | – | –
21 | C[C@@H]1CN(c2ncnc3c2c(-c2ccccc2F)cn3-c2cc(C#N)ccn2)CCN1C(=O)C1CC1 [Compound 111, (R)-2-(4-(4-(cyclopropanecarbonyl)-3-methylpiperazin-1-yl)-5-(2-fluorophenyl)-7H-pyrrolo[2,3-d]pyrimidin-7-yl)isonicotinonitrile] | – | – | < 100 | –
22 | CC(C)C(=O)N1C[C@H](C)N(c2ncnc3c2c(-c2ccccc2F)cn3-c2cc(C#N)ccn2)C[C@H]1C (single isomer, unassigned) [Compound 281] | 100 to 500 | – | – | –

Source: patent US20240398812A1 (Caraway Therapeutics, Inc., priority 2021, published 2024)
